In PMC12693701, “Glucosinolate-Derived Metabolites from Barbarea vulgaris (Brassicaceae): Evaluation of Antimicrobial, Antioxidant, and Anti-Inflammatory Potentials” (Molecules, 2025):
In brackets after ≈: the same amount, converted by molar mass. One block for each molecule: values may come before it.

Experiments:
[1] = system: C. albicans ATCC 10231; assay: Microdilution MIC/MMC with resazurin; type: cell-based, Candida albicans; settings: C. albicans ATCC 10231, reference antibiotics/antimycotic; for MIC: Candida albicans, ATCC10231, read-out: MIC
Protocol: (§1) The antimicrobial activity was evaluated against 15 microorganisms. This included 11 bacterial strains: four standard strains (Staphylococcus aureus ATCC 25923, Bacillus subtilis ATCC 6633, Bacillus pumilus NCTC 8241, and Escherichia coli ATCC 25922) and six clinical or environmental isolates (Staphylococcus aureus, Escherichia coli, Bacillus cereus, Proteus mirabilis, Salmonella enterica, and Klebsiella pneumoniae). One probiotic strain, Bifidobacterium animalis subsp. lactis was tested. In addition, four fungal strains, Candida albicans ATCC 10231, Trichoderma viride ATCC 13233, Aspergillus flavus ATCC 9170, and Fusarium solani ATCC 11712 were tested. The bacterial strains were kept in glycerol stock at −80 °C and the fungal strains in paraffin oil stock at 4 °C.
(§2) Bacterial and yeast suspensions were prepared using the direct colony method, as previously described by Andrews. The turbidity of the initial suspensions was adjusted to match the 0.5 McFarland standard using a densitometer (Biosan, Riga, Latvia), corresponding to approximately 10^8 colony-forming units (CFU)/mL for bacterial cells and 10^6 CFU/mL for yeast cells. Subsequently, 1:100 dilutions of the initial suspensions were prepared in sterile 0.85% saline. Fungal spore suspensions were obtained by gently harvesting spores from agar slopes containing mature mycelial growth. The collected spore suspensions were then diluted 1:1000 in sterile 0.85% saline prior to use.
(§3) Antimicrobial activity was evaluated by determining the minimum inhibitory concentration (MIC) and minimum microbicidal concentration (MMC) using the microdilution plate method with resazurin as an indicator [28]. In the 96-well plates, 100 μL of Mueller–Hinton broth (Torlak, Belgrade, Serbia) for bacterial testing and Sabouraud broth (Torlak, Belgrade, Serbia) for fungal testing were dispensed into each well. The compounds under investigation were initially dissolved in a 10% dimethyl sulfoxide (DMSO) solution, followed by dilution in sterile distilled water, resulting in a working compound solution containing 1% DMSO. A 100 μL aliquot of the stock solution of the tested compound was added to the first row, and twofold serial dilutions were then carried out using a multichannel pipette. The resulting concentration range was from 5 to 0.039 mg/mL. The inoculated microtiter plates were incubated at 37 °C for 24 h for bacteria, at 28 °C for 48 h for yeasts, and at 28 °C for 72 h for molds.
(§4) Each test also included growth control and sterility control. All tests were conducted in duplicate. MIC was defined as the lowest concentration of tested compounds that prevented resazurin color change from blue to pink. For molds, MIC values of the tested compound were determined as the lowest concentration that inhibited visible mycelia growth. MMC was determined by inoculation of the nutrient agar medium by plating […] of samples from wells, where no indicator color change was recorded. At the end of the incubation period, the lowest concentration with no growth (no colony) was defined as MMC.
(§5) Doxycycline, ampicillin and amphotericin B (- Sigma-Aldrich, St. Louis, MO, USA) and ketoconazole (Hemofarm A.D., Vršac, Serbia) were dissolved in a nutrient liquid medium. Doxycycline is a broad-spectrum antibiotic effective against both aerobic and anaerobic Gram-positive and Gram-negative bacteria. Ampicillin, a beta-lactam antibiotic, primarily targets Gram-positive bacteria but also some Gram-negative strains. Amphotericin B is an antifungal drug often used for serious systemic fungal infections and is one of the effective treatments for fungal infections caused by Aspergillus sp. Ketoconazole is an antifungal agent used to inhibit the growth of Candida species.

[2] = system: T. viride ATCC 13233; assay: Microdilution MIC/MMC; type: cell-based, Trichoderma viride; settings: T. viride ATCC 13233, reference antibiotics/antimycotic; for MIC: Trichoderma viride, ATCC13233, read-out: MIC
Protocol: as §1, §2, §3, §4, §5

[3] = system: A. flavus ATCC 9170; assay: Microdilution MIC/MMC; type: cell-based, Aspergillus flavus; settings: A. flavus ATCC 9170, reference antibiotics/antimycotic; for MIC: Aspergillus flavus, ATCC9170, read-out: MIC
Protocol: as §1, §2, §3, §4, §5

[4] = system: F. solani ATCC 11712; assay: Microdilution MIC/MMC; type: cell-based, Fusarium solani; settings: F. solani ATCC 11712, reference antibiotics/antimycotic
Protocol: as §1, §2, §3, §4, §5

[5] = system: B. subtilis ATCC 6633; assay: Microdilution MIC/MMC with resazurin; type: cell-based, Bacillus subtilis; settings: B. subtilis ATCC 6633, reference antibiotics/antimycotic; for MIC: Bacillus subtilis, ATCC6633, read-out: MIC
Protocol: as §1, §2, §3, §4, §5

[6] = system: B. cereus; assay: Microdilution MIC/MMC with resazurin; type: cell-based, Bacillus cereus; settings: B. cereus, reference antibiotics/antimycotic; for MIC: Bacillus cereus, read-out: MIC
Protocol: as §1, §2, §3, §4, §5

[7] = system: B. animalis subsp. lactis; assay: Microdilution MIC/MMC with resazurin; type: cell-based, Bifidobacterium animalis subsp. lactis; settings: B. animalis subsp. lactis, reference antibiotics/antimycotic; for MIC: Bifidobacterium animalis, read-out: MIC
Protocol: as §1, §2, §3, §4, §5

[8] = system: S. aureus ATCC 25923; assay: Microdilution MIC/MMC with resazurin; type: cell-based, Staphylococcus aureus; settings: S. aureus ATCC 25923, reference antibiotics/antimycotic; for MIC: Staphylococcus aureus, ATCC25923, read-out: MIC
Protocol: as §1, §2, §3, §4, §5

[9] = system: S. aureus; assay: Microdilution MIC/MMC with resazurin; type: cell-based, Staphylococcus aureus; settings: S. aureus isolate, reference antibiotics/antimycotic; for MIC: Staphylococcus aureus, read-out: MIC
Protocol: as §1, §2, §3, §4, §5

[10] = system: E. coli ATCC 25922; assay: Microdilution MIC/MMC with resazurin; type: cell-based, Escherichia coli; settings: E. coli ATCC 25922, reference antibiotics/antimycotic; for MIC: Escherichia coli, ATCC25922, read-out: MIC
Protocol: as §1, §2, §3, §4, §5

[11] = system: E. coli; assay: Microdilution MIC/MMC with resazurin; type: cell-based, Escherichia coli; settings: E. coli isolate, reference antibiotics/antimycotic; for MIC: Escherichia coli, read-out: MIC
Protocol: as §1, §2, §3, §4, §5

[12] = system: P. mirabilis; assay: Microdilution MIC/MMC with resazurin; type: cell-based, Proteus mirabilis; settings: P. mirabilis, reference antibiotics/antimycotic; for MIC: Proteus mirabilis, read-out: MIC
Protocol: as §1, §2, §3, §4, §5

[13] = system: S. enterica; assay: Microdilution MIC/MMC with resazurin; type: cell-based, Salmonella enterica; settings: reference antibiotics/antimycotic; for MIC: Salmonella enterica
Protocol: as §1, §2, §3, §4, §5

[14] = system: K. pneumoniae; assay: Microdilution MIC/MMC with resazurin; type: cell-based, Klebsiella pneumoniae; settings: K. pneumoniae, reference antibiotics/antimycotic; for MIC: Klebsiella pneumoniae, read-out: MIC
Protocol: as §1, §2, §3, §4, §5

[15] = ABTS radical scavenging assay; settings: mean ± SD
Protocol: The ABTS radical cation solution was prepared following the previously described protocol. Different concentrations of the analyzed samples were prepared in DMSO. The test samples were prepared following the specified procedure: 20 µL of sample was combined with 980 µL of methanol, followed by the addition of 1000 µL of ABTS solution. Absorbance was measured at 734 nm. All measurements were performed in triplicate.

[16] = system: B. pumilus NCTC 8241; assay: Microdilution MIC/MMC with resazurin; type: cell-based, Bacillus pumilus; settings: B. pumilus NCTC 8241, reference antibiotics/antimycotic
Protocol: as §1, §2, §3, §4, §5

MIC [1]: 1.96 µg/mL (≈ 3.69 µM)
MIC [2]: 62.5 µg/mL (≈ 118 µM)
MIC [3]: < 0.49 µg/mL
MIC ([4]; Fusarium solani, ATCC11712, read-out: MIC): 0.08 µg/mL (≈ 0.151 µM)
SMILES: CC(=O)N1CCN(c2ccc(OCC3COC(Cn4ccnc4)(c4ccc(Cl)cc4Cl)O3)cc2)CC1 (stereo not shown) [Ketoconazole, reference compound]
MMC [1]: 1.96 µg/mL
MMC [2]: 125 µg/mL
MMC [3]: 1.96 µg/mL
MMC [4]: 0.156 µg/mL

SMILES: C[C@H]1c2cccc(O)c2C(=O)C2=C(O)[C@]3(O)C(=O)C(C(N)=O)=C(O)[C@@H](N(C)C)[C@@H]3[C@@H](O)[C@@H]21 [Doxycycline, reference compound]
MMC [5]: 31.25 µg/mL
MIC [5]: 1.95 µg/mL (≈ 4.39 µM)
MMC [6]: 7.81 µg/mL
MIC [6]: 0.977 µg/mL (≈ 2.2 µM)
MMC [7]: 8 µg/mL
MIC [7]: 4 µg/mL (≈ 9 µM)
MMC [8]: 3.75 µg/mL
MIC [8]: 0.224 µg/mL (≈ 0.504 µM)
MMC [9]: 7.81 µg/mL
MIC [9]: 0.45 µg/mL (≈ 1.01 µM)
MMC [10]: 31.25 µg/mL
MIC [10]: 15.6 µg/mL (≈ 35.2 µM)
MMC [11]: 62.5 µg/mL
MIC [11]: 15.6 µg/mL (≈ 35.2 µM)
MMC [12]: 62.5 µg/mL
MIC [12]: 15.6 µg/mL (≈ 35.2 µM)
MIC [13]: 15.6 µg/mL (≈ 35.2 µM)
MMC [14]: 32 µg/mL
MIC [14]: 2 µg/mL (≈ 4.5 µM)

SMILES: Cc1c(C)c2c(c(C)c1O)CCC(C)(C(=O)O)O2 (stereo not shown) [Trolox, reference compound]
ABTS Scavenging Ability ([15]; 25 µM): 97.5 ± 0.2%
ABTS Scavenging Ability ([15]; 50 µM): 99.3 ± 0.1%
ABTS Scavenging Ability ([15]; 100 µM): 99.5 ± 0.3%

SMILES: CC1(C)S[C@@H]2[C@H](NC(=O)[C@H](N)c3ccccc3)C(=O)N2[C@H]1C(=O)O [Ampicillin, reference compound]
MMC [5]: 4 µg/mL
MIC [5]: 3 µg/mL (≈ 8.59 µM)
MMC [6]: 6 µg/mL
MIC [6]: 4 µg/mL (≈ 11.4 µM)
MMC [16]: 12 µg/mL
MIC ([16]; Bacillus pumilus, NCTC8241, read-out: MIC): 8 µg/mL (≈ 22.9 µM)
MMC [7]: 0.12 µg/mL
MIC [7]: < 0.06 µg/mL
MMC [8]: 0.75 µg/mL
MIC [8]: 0.25 µg/mL (≈ 0.715 µM)
MMC [9]: <0.06 µg/mL
MIC [9]: < 0.06 µg/mL
MMC [10]: 0.5 µg/mL
MIC [10]: 0.37 µg/mL (≈ 1.06 µM)
MMC [11]: 2.1 µg/mL
MIC [11]: 1.2 µg/mL (≈ 3.43 µM)
MMC [12]: >128 µg/mL
MIC [12]: > 128 µg/mL
MIC [13]: 1 µg/mL (≈ 2.86 µM)
MMC [13]: 1 µg/mL
MMC [14]: >128 µg/mL
MIC [14]: > 128 µg/mL

MIC [1]: < 0.098 µg/mL
MIC [2]: 0.78 µg/mL (≈ 0.844 µM)
MIC [3]: 0.39 µg/mL (≈ 0.422 µM)
SMILES: C[C@@H]1[C@H](O)[C@@H](C)/C=C/C=C/C=C/C=C/C=C/C=C/C=C/[C@H](O[C@@H]2O[C@H](C)[C@@H](O)[C@H](N)[C@@H]2O)C[C@@H]2O[C@](O)(C[C@@H](O)C[C@@H](O)[C@H](O)CC[C@@H](O)C[C@@H](O)CC(=O)O[C@H]1C)C[C@H](O)[C@H]2C(=O)O [Amphotericin B, reference compound]
MMC [1]: <0.098 µg/mL
MMC [2]: 1.56 µg/mL
MMC [3]: 0.78 µg/mL
